The source of these data is patent US12084419B2, “Cell metabolism modulating compounds and uses thereof” (CRESCENTA BIOSCIENCES, priority 2020, dated 2024).

The assay addresses T1, His6 tagged human recombinant FABP4 (Homo sapiens, UniProt P15090).
T1 construct: purchased Cayman Chemicals 10009549
Briefly: FABP4 TR-FRET assay: displacement of BODIPY FL C12 fatty acid. The following applies: triplicates, inhibition of BODIPY FL C12 binding; for inhibition at 1 µM: 1 μM compound; for inhibition at 10 µM: 10 μM compound. From the text: Activity of compounds with FABP4 was profiled using a Terbium (Tb) based time resolved fluorescence energy transfer (TR-FRET) assay. The assay measures the compound mediated displacement of the fluorescent fatty acid BODIPY FL C12 (Thermo Fisher; catalog number D3822) from His6 tagged human recombinant FABP4 (His6-FABP4; Cayman Chemicals, catalog number 10009549) via recording the energy transfer from TB donor molecule on anti-His6-tag antibody to acceptor BODIPY moiety. Briefly, compounds were prepared at a concentration of 0.362 mM and 0.0362 mM, and BODIPY FL C12 was prepared at 4.2 μM, in DMSO. 1.2 μL of each compound or DMSO (vehicle control) and 1.2 μL of BODIPY FL C12 were added into the wells of a 384-well black polypropylene plate. His6-FABP4 and Tb anti-His6 antibody were prepared in the assay buffer (25 mM Tris/HCl, pH 7.4, 0.4 mg/ml y-globulins, 0.010% NP-40, 1 mM DTT) at a concentration of 83 nM and 49.6 nM, respectively. The protein and antibody solutions were then mixed at a ratio of 34:7 (v/v) and incubated on ice for 30 minutes. The assay was initiated by adding 41 μL of the resulting protein/antibody solution into the wells containing the compounds and BODIPY FL C12. The plate was centrifuged and incubated at room temperature for 10 min. The TR-FRET signals were recorded using an EnVision Multilabel plate reader (PerkinElmer; TB excitation 320 nm, BODIPY FL C12 emission 520 nm; TB emission 615 nm). Relative fluorescence ratio (520 nm*10,000/615 nm) were used to calculate the compound mediated inhibition of BODIPY C12 FL fatty acid binding to FABP4. […] Glucose consumption and FABP4 inhibition is shown below in Table 3 below.

SMILES strings stand for the structures.

T1 sequence (P15090 whole entry): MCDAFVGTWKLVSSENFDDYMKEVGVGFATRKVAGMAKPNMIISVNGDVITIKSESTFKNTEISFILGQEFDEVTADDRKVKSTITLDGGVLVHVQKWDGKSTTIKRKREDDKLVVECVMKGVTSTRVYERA

A word on the inhibition: it is the change of the read-out against control, counted positive when it falls. For `CCCCCCC1CCc2c(n(Cc3ccccc3F)c3c(C(=O)O)cccc23)C1` (stereo not shown) [9-[(2-fluorophenyl)methyl]-2-hexyl-2,3,4,9-tetrahydro-1H-carbazole-8-carboxylic acid], the inhibition at 1 µM was 81.8% and the inhibition at 10 µM is 84.9%.

As to `CCCC1CCCc2c(n(Cc3cccc(C(N)=O)c3)c3c(C(=O)O)cccc23)C1` (stereo not shown) [5-[(3-carbamoylphenyl)methyl]-7-propyl-5H,6H,7H,8H,9H,10H-cyclohepta[b]indole-4-carboxylic acid], the inhibition at 1 µM was found to be 85.1% and the inhibition at 10 µM amounted to 91.4%.

Turning to `CCCCC1CCc2c1n(Cc1cccc(C(N)=O)c1)c1c(C(=O)O)cccc21` (stereo not shown) [3-butyl-4-[(3-carbamoylphenyl)methyl]-1H,2H,3H,4H-cyclopenta[b]indole-5-carboxylic acid], the inhibition at 1 µM is 96.8% and the inhibition at 10 µM amounted to 98.5%.

Consider `CCCCCCC1CCCc2c(n(Cc3ccccc3C#N)c3c(C(=O)O)cccc23)C1` (stereo not shown) [5-[(2-cyanophenyl)methyl]-7-hexyl-5H,6H,7H,8H,9H,10H-cyclohepta[b]indole-4-carboxylic acid], for which the inhibition at 10 µM was found to be 88.6%.

Turning to `CCCCC1CCCc2c(n(Cc3cccc(C#N)c3)c3c(C(=O)O)cccc23)C1` (stereo not shown) [7-butyl-5-[(3-cyanophenyl)methyl]-5H,6H,7H,8H,9H,10H-cyclohepta[b]indole-4-carboxylic acid], the inhibition at 1 µM was 73.5% and the inhibition at 10 µM was found to be 112%.

With `CCC1CCCc2c(n(Cc3cccc(C(N)=O)c3)c3c(C(=O)O)cccc23)C1` (stereo not shown) [5-[(3-carbamoylphenyl)methyl]-7-ethyl-5H,6H,7H,8H,9H,10H-cyclohepta[b]indole-4-carboxylic acid], the inhibition at 1 µM is 91.8% and the inhibition at 10 µM was 100%.

Take `CCCCCCC1CCc2c(n(Cc3cccc(C#N)c3)c3c(C(=O)O)cccc23)C1` (stereo not shown) [9-[(3-cyanophenyl)methyl]-2-hexyl-2,3,4,9-tetrahydro-1H-carbazole-8-carboxylic acid]: the inhibition at 1 µM worked out at 63.6% and the inhibition at 10 µM stood at 83.4%.

Turning to `CCCCCCC1CCc2c(n(Cc3ccc(C#N)cc3)c3c(C(=O)O)cccc23)C1` (stereo not shown) [9-[(4-cyanophenyl)methyl]-2-hexyl-2,3,4,9-tetrahydro-1H-carbazole-8-carboxylic acid], the inhibition at 1 µM worked out at 39.7% and the inhibition at 10 µM was determined as 78.9%.

As to `CCCCC1CCc2c(n(Cc3cccc(C(N)=O)c3)c3c(C(=O)O)cccc23)C1` (stereo not shown) [2-butyl-9-[(3-carbamoylphenyl)methyl]-2,3,4,9-tetrahydro-1H-carbazole-8-carboxylic acid], the inhibition at 1 µM amounted to 88.5% and the inhibition at 10 µM came to 95.5%.

On to `CCCCC1CCCCc2c1c1cccc(C(=O)O)c1n2Cc1cccc(C#N)c1` (stereo not shown) [10-butyl-5-[(3-cyanophenyl)methyl]-5H,6H,7H,8H,9H,10H-cyclohepta[b]indole-4-carboxylic acid], for which the inhibition at 1 µM came out at 30.9% and the inhibition at 10 µM is 73.6%.

As for `CCCCCCC1CCCc2c(n(Cc3cccc(C#N)n3)c3c(C(=O)O)cccc23)C1` (stereo not shown) [5-[(6-cyanopyridin-2-yl)methyl]-7-hexyl-5H,6H,7H,8H,9H,10H-cyclohepta[b]indole-4-carboxylic acid], the inhibition at 1 µM amounted to 93.5% and the inhibition at 10 µM worked out at 88.1%.

On to `CCCCCCC1CCCc2c(n(Cc3cccc4ncoc34)c3c(C(=O)O)cccc23)C1` (stereo not shown) [5-[(1,3-benzoxazol-7-yl)methyl]-7-hexyl-5H,6H,7H,8H,9H,10H-cyclohepta[b]indole-4-carboxylic acid], for which the inhibition at 1 µM is 92% and the inhibition at 10 µM came to 95.3%.

For the molecule `CCCOC1CCCc2c1n(Cc1cccc(C(N)=O)c1)c1c(C(=O)O)cccc21` (stereo not shown) [9-[(3-carbamoylphenyl)methyl]-1-propoxy-2,3,4,9-tetrahydro-1H-carbazole-8-carboxylic acid], the inhibition at 1 µM worked out at 57.6% and the inhibition at 10 µM amounted to 92%.

For `CCCCC1CCCc2c(n(Cc3cccc(C(N)=O)c3)c3c(C(=O)O)cccc23)C1` (stereo not shown) [7-butyl-5-[(3-carbamoylphenyl)methyl]-5H,6H,7H,8H,9H,10H-cyclohepta[b]indole-4-carboxylic acid], the inhibition at 1 µM turned out to be 89.4% and the inhibition at 10 µM was found to be 117%.

Consider `N#Cc1cccc(Cn2c3c(c4cccc(C(=O)O)c42)CCC(CCc2ccccc2)C3)c1` (stereo not shown) [9-[(3-cyanophenyl)methyl]-2-(2-phenylethyl)-2,3,4,9-tetrahydro-1H-carbazole-8-carboxylic acid], for which the inhibition at 10 µM was 92.3%.

Turning to `CCC1CCc2c(n(Cc3cccc(C(N)=O)c3)c3c(C(=O)O)cccc23)C1` (stereo not shown) [9-[(3-carbamoylphenyl)methyl]-2-ethyl-2,3,4,9-tetrahydro-1H-carbazole-8-carboxylic acid], the inhibition at 1 µM turned out to be 85.5% and the inhibition at 10 µM was determined as 101%.

On to `CCCCCCC1CCCc2c(n(Cc3ccc(C#N)cc3)c3c(C(=O)O)cccc23)C1` (stereo not shown) [5-[(4-cyanophenyl)methyl]-7-hexyl-5H,6H,7H,8H,9H,10H-cyclohepta[b]indole-4-carboxylic acid], for which the inhibition at 1 µM was 81.3% and the inhibition at 10 µM is 84.7%.

For the molecule `CCCCCCC1CCCc2c(n(Cc3cccc(C(N)=O)n3)c3c(C(=O)O)cccc23)C1` (stereo not shown) [5-[(6-carbamoylpyridin-2-yl)methyl]-7-hexyl-5H,6H,7H,8H,9H,10H-cyclohepta[b]indole-4-carboxylic acid], the inhibition at 1 µM is 94% and the inhibition at 10 µM came to 95.2%.

Turning to `CCCC1CCCCc2c1c1cccc(C(=O)O)c1n2Cc1cccc(C#N)c1` (stereo not shown) [5-[(3-cyanophenyl)methyl]-10-propyl-5H,6H,7H,8H,9H,10H-cyclohepta[b]indole-4-carboxylic acid], the inhibition at 1 µM stood at 73.3% and the inhibition at 10 µM was 97.5%.

As to `CCCCCC1CCCc2c1c1cccc(C(=O)O)c1n2Cc1cccc(C(N)=O)c1` (stereo not shown) [9-[(3-carbamoylphenyl)methyl]-4-pentyl-2,3,4,9-tetrahydro-1H-carbazole-8-carboxylic acid], the inhibition at 1 µM came out at 42.6% and the inhibition at 10 µM was determined as 84.4%.

As to `CCCCCCC1CCc2c(n(Cc3ccccc3C(N)=O)c3c(C(=O)O)cccc23)C1` (stereo not shown) [9-[(2-carbamoylphenyl)methyl]-2-hexyl-2,3,4,9-tetrahydro-1H-carbazole-8-carboxylic acid], the inhibition at 1 µM was 31.1% and the inhibition at 10 µM was found to be 80.7%.

On to `CCCCCCCCC1CCCc2c(n(Cc3cccc(C(N)=O)c3)c3c(C(=O)O)cccc23)C1` (stereo not shown) [5-[(3-carbamoylphenyl)methyl]-7-octyl-5H,6H,7H,8H,9H,10H-cyclohepta[b]indole-4-carboxylic acid], for which the inhibition at 1 µM amounted to 98.1% and the inhibition at 10 µM was found to be 93.6%.

With `CCCCCCC1CCc2c(n(Cc3ccc(C)cc3)c3c(C(=O)O)cccc23)C1` (stereo not shown) [2-hexyl-9-[(4-methylphenyl)methyl]-2,3,4,9-tetrahydro-1H-carbazole-8-carboxylic acid], the inhibition at 1 µM is 74.3% and the inhibition at 10 µM was 88.5%.

On to `CCCCCCC1CCCc2c(n(Cc3cccc(OC)c3)c3c(C(=O)O)cccc23)C1` (stereo not shown) [7-hexyl-5-[(3-methoxyphenyl)methyl]-5H,6H,7H,8H,9H,10H-cyclohepta[b]indole-4-carboxylic acid], for which the inhibition at 10 µM turned out to be 93.6%.

Consider `CCCCCC1Cc2c(n(Cc3cccc(C#N)c3)c3c(C(=O)O)cccc23)C1` (stereo not shown) [4-[(3-cyanophenyl)methyl]-2-pentyl-1H,2H,3H,4H-cyclopenta[b]indole-5-carboxylic acid], for which the inhibition at 1 µM came to 39.5% and the inhibition at 10 µM was determined as 78.3%.

For `NC(=O)c1cccc(Cn2c3c(c4cccc(C(=O)O)c42)CCCC(CCc2ccccc2)C3)c1` (stereo not shown) [5-[(3-carbamoylphenyl)methyl]-7-(2-phenylethyl)-5H,6H,7H,8H,9H,10H-cyclohepta[b]indole-4-carboxylic acid], the inhibition at 1 µM came out at 99.1% and the inhibition at 10 µM was 98%.

On to `N#Cc1cccc(Cn2c3c(c4cccc(C(=O)O)c42)C(CCc2ccccc2)CCC3)c1` (stereo not shown) [9-[(3-cyanophenyl)methyl]-4-(2-phenylethyl)-2,3,4,9-tetrahydro-1H-carbazole-8-carboxylic acid], for which the inhibition at 1 µM was determined as 31% and the inhibition at 10 µM is 53.4%.

`CCCCCC1CCc2c(n(Cc3cccc(C#N)c3)c3c(C(=O)O)cccc23)C1` (stereo not shown) [9-[(3-cyanophenyl)methyl]-2-pentyl-2,3,4,9-tetrahydro-1H-carbazole-8-carboxylic acid]: the inhibition at 1 µM turned out to be 60.8% and the inhibition at 10 µM is 77.1%.

For `CCCCC1CCc2c1n(Cc1cccc(C#N)c1)c1c(C(=O)O)cccc21` (stereo not shown) [3-butyl-4-[(3-cyanophenyl)methyl]-1H,2H,3H,4H-cyclopenta[b]indole-5-carboxylic acid], the inhibition at 1 µM amounted to 85.1% and the inhibition at 10 µM is 98.5%.
